Experimental data published in US5719129A, “Derivative of caffeic acid, oraposide, and cosmetic or pharmaceutical compositions, in particular dermatological compositions, containing it” (priority 1993, dated 1998).
One block for each molecule: values may come before it.

Columns and labels:
rabbit liver microsomes = assay: Lipoperoxidation inhibition in liver microsomes (malonyl dialdehyde formation); assay type: biochemical
Description: Verbascoside, oraposide and arenarioside are heteroside esters of caffeic acid and the acids cited are other esters of caffeic acid.
A lipoperoxidation reaction takes place when rabbit liver microsomes are incubated in the presence of NADPH.
The microsomes were recovered from the processing of hepatocytes with ultrasound.
Lipoperoxidation was evaluated through the formation of malonyl dialdehyde in accordance with the method by Placer et al., 1966 (Analyt. Biochem. 16,359-364).
The reaction was performed in the absence of (control) and in the presence of caffeic acid or oraposide in a concentration of 5.10^-5 M or in the presence of α-tocopherol (Sigma) at 5.10^-5 M (known inhibiting activity reference).

human keratinocytes [1] = assay: Anti-free-radical activity in keratinocyte cultures (MDA production); assay type: cell-based; settings: for inhibition at 100 µM: Homo sapiens, Keratinocyte, 2 h, 2 hours incubation, mean of 3 measurements
Description: The anti-free-radical activity of oraposide was investigated on a line of human keratinocytes in culture, in comparison with well known anti-free-radical agents.
The protective activity of the anti-free-radical agent was evaluated by measuring malonaldehyde (MDA) in the culture medium (reflecting the lipoperoxidation of cell membrane lipids) after the cells had been brought into contact with a source of oxygenated free radicals (after the method of Z. A. Placer et al., 1966, Anal. Biochem. 16, 359-64, reference cited above).
Cells: human keratinocytes from a squamous carcinoma.
One week after seeding the merged single layer of cells was processed with […] of a solution containing an oxygenated radical generator consisting of vitamin C 10^-3 M, FeCl3 10^-4 M, FeSO4 10^-4 M in pH 8 PBS buffer to which the molecule being tested was added (=reaction medium).
After incubation at 37° C. for 2 hours this incubation medium was recovered for the determination of MDA.
After 2 hours incubation with the cells the 500 μl of reaction medium was sampled and thiobarbituric acid was added in order to determine MDA at 532 nm.
The results are stated as % inhibition of MDA production.
The investigation was performed at a concentration of 100 μM for the 3 materials after 2 hours incubation with the reaction mixture. The MDA produced, determined by spectrophotometry, provided results which are expressed as % inhibition of this production in comparison with the controls (reaction medium alone).

human keratinocytes [2] = assay: Cytotoxicity in keratinocyte culture (LDH release); settings: for cytotoxicity (in words) / % increase in OD with respect to the control (+DMSO), D1 / % increase in OD with respect to the control (+DMSO), D2 / % increase in OD with respect to the control (+DMSO), D3: 200 μM; for cytotoxicity (in words): LDH release; for % increase in OD with respect to the control (+DMSO), D1: day 1, mean of 3 measurements; for % increase in OD with respect to the control (+DMSO), D2: day 2, mean of 3 measurements; for % increase in OD with respect to the control (+DMSO), D3: day 3, mean of 3 measurements
Description: Culture medium: DMEM (1/2), HAM F12 (1/2) basic medium (from the Gibco company), with added 5% foetal calf serum (from the Intermed company).
Cultures were prepared in 60 mm petri dishes (NUNC), seeding density: 5000 cells per cm^2.
The compounds were tested in solution in DMSO at 200 μM, the control cultures containing an identical amount of solvent.
The amount of LDH released into the culture medium after daily treatment with anti-free-radical molecules was determined after 24 hours and then for 6 days.
The supernatant from the culture was contacted with sodium pyruvate and NADH, and the kinetics of LDH activity were measured spectrophotometrically (Boehringer kit).

[3] = tested on: micromycete contaminants commonly found in foodstuffs; assay: Antifungal activity against micromycete contaminants of foodstuffs (25 species); assay type: cell-based; parameters: Strains whose growth was inhibited or diminished: concentration or dose not given beside the values; settings: 25 species of fungi
Description: (§1) It is known that a number of caffeic acid derivatives inhibit the growth of bacteria and fungi. This property has been confirmed for oraposide with 40 different strains belonging to 10 genera of bacteria, and 25 different strains belonging to 25 species of fungi.
Antifungal activity was tested in relation to micromycete contaminants commonly found in foodstuffs. The test was performed with 25 species belonging to the Adelomycetes (e.g. Alternaria tenuis, Fusarium avenceum, Geotricom candidum, etc.), Mucorales (e.g. Mucor mucedo, Cunninghamella elegans, Rhizopus nigricans, etc.), Endomycetes (e.g. Candida lipolytica, Saccharomyces cerevisiae, etc.), Plectomycetes (e.g. Aspergillus clavatus, A. niger, Penicillium chrysogenum, P. rubturm, etc.), and Pyrenomycetes (e.g. Chaetomium globosum, Sordaria himicola, etc.).

A.R. calf lens = biological target: T1, A.R. calf lens (Bos taurus, UniProt P16116); assay: Inhibition of aldose reductase, calf lens; assay type: biochemical, bovine (calf)
T1 construct: crude enzyme extract isolated from lenses freshly obtained from bovines and rats; from tissue; host or cells: calf (bovine) lens, crude enzyme extract
Description: (§2) Enzyme inhibition was evaluated in vitro using a crude enzyme extract isolated from lenses freshly obtained from bovines and rats. The principle of the reaction is as follows: [drawing 3]
(§3) This reaction takes place at PH=6.2 at ambient temperature and extinctions were measured at 340 nm. The molecules tested were dissolved in twice-distilled water.
The aldose reductase inhibiting activity of the various heteroside caffeic esters (1) and (2) correspond to two different series of experiments.

A.R. - Rat lens = biological target: T2, A.R. - Rat lens (Rattus norvegicus, UniProt P07943); assay: Inhibition of aldose reductase, rat lens; assay type: biochemical
T2 construct: crude enzyme extract isolated from lenses freshly obtained from bovines and rats; from tissue; host or cells: rat lens, crude enzyme extract
Description: as §2, §3

[4] = UV absorption of oraposide compared with sunscreen filters (integration of UVB and UVA peak surface areas); assay type: physicochemical
Text: Integration of the surface areas of the UVB peaks can be used to compare oraposide with Parsol MCX®, from which it can be seen that the UVB absorption activity of oraposide is 0.4 times that of Parsol MCX®. If the surface area of the UVA peak of oraposide is integrated and compared with Parsol 1 789®, it will be seen that the UVA absorption of oraposide is approximately 0.2 times that of Parsol 1 789®.

rabbit hepatocytes [5] = assay: LDH release by hepatocytes in primary culture intoxicated with nitroxynil; assay type: cell-based; settings: oraposide 5.10^-5 M (0.05 mM); nitroxynil 10^-4 M; 3 and 7 hours (FIG. 1)
Text: Reference 1 in the two blocks of histograms indicates the results obtained with untreated cultures, acting as controls, reference 2 indicates histogram blocks obtained using cultures treated with nitroxynil at a concentration of 10^-4 M, reference 3 indicates histogram blocks obtained with cultures treated with nitroxynil in a concentration of 10^-4 M and verbascoside in a concentration of 5.10 ^-5 M, reference 4 indicates histogram blocks obtained with cultures treated with nitroxynil in a concentration of 10^-4 M and oraposide in a concentration of 5.10^-5 M, and reference 5 indicates histogram blocks obtained with cultures treated with nitroxynil in a concentration of 10^-4 M and arenarioside in a concentration of 5.10^-5 M. Nitroxynil is a hepatotoxic agent, verbascoside and arenarioside are other heteroside esters of caffeic acid which are known to those skilled in the art.
(§4) The experimental model selected was investigation of the release of lactate dehydrogenase (LDH) by rabbit hepatocytes in primary culture, this LDH release representing a marker of hepatocyte deterioration.
(§5) The hepatocytes were deliberately intoxicated with nitroxynil (10^-4 to 10^-5 M) or chloroform (10^-3 to 10^-5 M) .
(§6) The effect of oraposide was evaluated for a final concentration of 0.05 mM in the culture medium.

rabbit hepatocytes [6] = assay: LDH release by hepatocytes in primary culture intoxicated with chloroform; assay type: cell-based; settings: oraposide 5.10^-5 M; chloroform 10^-4 M; 3, 7 and 24 hours (FIG. 2)
Text: As in FIG. 1, reference 1 indicates the results obtained with untreated cultures, reference 2 the results obtained with cultures treated with 10^-4 M chloroform, and reference 3 the results obtained with cultures treated with a combination of 10^-4 M chloroform and oraposide in a concentration of 5.10^-5 M. Chloroform is also a hepatotoxic agent.
as §4, §5, §6

rabbit hepatocytes [7] = assay: Cell toxicity of oraposide itself on hepatocytes; assay type: cell-based; settings: even at a concentration of 100 μM
Text: as §4

bacterial strains = assay: Antibacterial effect, 40 strains belonging to 10 genera of bacteria; assay type: cell-based; settings: doses of 0.5 mg/ml and above
Text: as §1
The bacterial strains tested were: Staphylococcus aureus, Streptococcus (group A and group D), Escherichia coli, Klebsiella pneumoniae, Proteus sp., Providentia sp., Serratia marcescens, Enterobacter cloacae, Pseudomonas aeruginosa, Salmonella (S. typhi and S. para-typhi).

Staphylococcus aureus = assay: Antibacterial effect, 29 strains of Staphylococcus aureus; assay type: cell-based
aldose reductase = assay: Inhibition of aldose reductase, comparison in the conclusion (species not given); assay type: biochemical; settings: value given in conclusion, species not specified; read-out: IC 50 (conclusion)
Text: The four molecules inhibit aldose reductase from both cattle and rats.

[8] = tested on: tremor caused by a tremor-inducing factor; assay: Antitremor activity in association with L-dopa against a tremor-inducing factor, in animals and in man; assay type: in vivo; settings: associated with L-dopa
Text: (§7) In accordance with a particular embodiment of the invention within the context of antitremor treatment, in particular in Parkinson's disease, the composition according to the aforesaid invention also contains a therapeutically effective amount of L-dopa. In fat oraposide and its derivatives of formula I aforesaid have a potentiating activity for L-dopa in its antitremor activity, which is effective in particular in Parkinson's disease. Oraposide and its derivatives of formula I aforesaid associated with L-dopa in fact experimentally reduce tremor caused by a tremor-inducing factor in animals and in man. In Parkinson's disease an improvement in abnormal movements (of the choreic type) and other secondary disturbances due to treatment with L-dopa is found.

Parkinson's disease = assay: Effect in Parkinson's disease on abnormal movements and secondary disturbances due to treatment with L-dopa; assay type: in vivo; settings: associated with L-dopa
Text: as §7

[9] = 5.10^-5 M, microsomes with NADPH (FIG. 3)

SMILES: Cc1c(C)c2c(c(C)c1O)CCC(C)(CCCC(C)CCCC(C)CCCC(C)C)O2 (stereo not drawn) [α-tocopherol, reference compound]
inhibition of lipoperoxidation (in words) (rabbit liver microsomes; [9]): equivalent inhibiting activity
inhibition at 100 µM (human keratinocytes [1]): 100%
cytotoxicity (in words) (human keratinocytes [2]): less pronounced
% increase in OD with respect to the control (+DMSO), D1 (human keratinocytes [2]): 19 ± 2%
% increase in OD with respect to the control (+DMSO), D2 (human keratinocytes [2]): 83 ± 20%
% increase in OD with respect to the control (+DMSO), D3 (human keratinocytes [2]): 54 ± 8%

Strains whose growth was inhibited by an MIC <10 mg/ml [3]: 44%
IC50 (A.R. calf lens; series (1)): 1600 nM
IC50 (A.R. calf lens; series (2)): 1600 nM
IC50 (A.R. - Rat lens): 1780 nM
SMILES: C[C@@H]1O[C@@H](O[C@@H]2[C@@H](O)[C@H](OCCc3ccc(O)c(O)c3)O[C@H](CO)[C@H]2OC(=O)/C=C/c2ccc(O)c(O)c2)[C@H](O)[C@H](O)[C@H]1O [Verbascoside]
Strains whose growth was inhibited or diminished [3]: 72%

Strains whose growth was inhibited by an MIC <10 mg/ml [3]: 52%
SMILES: O=C(O)/C=C/c1ccc(O)c(O)c1 [Caffeic acid, 3,4-dihydroxycinnamic acid]
inhibition of lipoperoxidation (in words) (rabbit liver microsomes; [9]): equivalent inhibiting activity
Strains whose growth was inhibited or diminished [3]: 83%

SMILES: Cc1cc(C(C)(C)C)c(O)c(C(C)(C)C)c1 [BHT, reference compound]
inhibition at 100 µM (human keratinocytes [1]): 64 ± 2%
cytotoxicity (in words) (human keratinocytes [2]): high cytotoxicity

SMILES: CC1OC(OC2C(OC(=O)C=Cc3ccc(O)c(O)c3)C(CO)OC3OCC(c4ccc(O)c(O)c4)OC32)C(O)C(O)C1O [Oraposide, 3-0-(α-L-rhamnopyranosyl)-[2-(3,4-dihydroxyphenyl)-1,2-ethylidene]-β-D-glucopyranoside 4-caffeate]
UVA absorption relative to Parsol 1 789 ([4]; surface area of UVA peak, vs Parsol 1 789): approximately 0.2 times
UVB absorption activity relative to Parsol MCX ([4]; surface area of UVB peak, vs Parsol MCX): 0.4 times
release of LDH by hepatocytes intoxicated with nitroxynil (rabbit hepatocytes [5]): very significantly reduces the release of LDH
release of LDH by hepatocytes intoxicated with chloroform (rabbit hepatocytes [6]): a less clear effect
cell toxicity (rabbit hepatocytes [7]): no cell toxicity
inhibition of lipoperoxidation (rabbit liver microsomes; [9]): 100%
inhibition of lipoperoxidation (in words) (rabbit liver microsomes; [9]): stronger inhibition
inhibition of lipid oxidation potentiated by CCl4 (rabbit liver microsomes; free radical generator CCl4): 100%
inhibition of lipid oxidation potentiated by H2O2 (rabbit liver microsomes; free radical generator H2 O2): 90%
IC50 (rabbit liver microsomes; read-out: dose required to obtain 50% inhibition of lipoperoxidation, FIG. 4): 10000 nM
inhibition of all bacterial strains (bacterial strains): 100%
inhibition at 60 µg/mL (Staphylococcus aureus; 0.06 mg/ml): 70%
inhibition at 120 µg/mL (Staphylococcus aureus; 0.12 mg/ml): 80%
Strains whose growth was inhibited or diminished [3]: 92%
Strains whose growth was inhibited by an MIC <10 mg/ml [3]: 64%
IC50 (A.R. calf lens; series (1)): 150 nM
IC50 (A.R. calf lens; series (2)): 165 nM
IC50 (A.R. - Rat lens): 220 nM
IC50 (aldose reductase): 160 nM
protective power / anti-free-radical activity (in words) (human keratinocytes [1]; 100 μM): equally effective as BHT, but less effective than α-tocopherol
inhibition at 100 µM (human keratinocytes [1]; 1st experiment): 70 ± 3%
inhibition at 100 µM (human keratinocytes [1]; 2nd experiment): 60 ± 15%
tremor caused by a tremor-inducing factor [8]: reduce tremor
abnormal movements (of the choreic type) and other secondary disturbances due to treatment with L-dopa (Parkinson's disease): improvement
cytotoxicity (in words) (human keratinocytes [2]): no cytotoxic effect
% increase in OD with respect to the control (+DMSO), D1 (human keratinocytes [2]): 0%
% increase in OD with respect to the control (+DMSO), D2 (human keratinocytes [2]): 0%
% increase in OD with respect to the control (+DMSO), D3 (human keratinocytes [2]): 0%
cytotoxic effect up to a concentration of 200 μM (human keratinocytes [2]; up to 200 μM): no cytotoxic effect

IC50 (A.R. calf lens; series (1)): 2380 nM
IC50 (A.R. calf lens; series (2)): 1470 nM
IC50 (A.R. - Rat lens): 4180 nM
SMILES: C[C@@H]1OC(O[C@@H]2[C@@H](O)[C@H](OCCc3ccc(O)c(O)c3)O[C@H](CO[C@@H]3OC[C@@H](O)[C@H](O)[C@H]3O)[C@H]2OC(=O)/C=C/c2ccc(O)c(O)c2)[C@H](O)[C@H](O)[C@H]1O (stereo partly shown) [Arenarioside]

Strains whose growth was inhibited by an MIC <10 mg/ml [3]: 96%
SMILES: O=C(/C=C/c1ccc(O)c(O)c1)O[C@H](Cc1ccc(O)c(O)c1)C(=O)O [Rosmarinic acid]
Strains whose growth was inhibited or diminished [3]: 100%

Strains whose growth was inhibited by an MIC <10 mg/ml [3]: 40%
SMILES: O=C(/C=C/c1ccc(O)c(O)c1)O[C@@H]1C[C@](O)(C(=O)O)C[C@@H](O)[C@H]1O [Chlorogenic acid]
Strains whose growth was inhibited or diminished [3]: 80%
